Source: patent publication US20040162432A1, “Substituted octahydrophenanthrene compounds and use thereof as NMDA antagonists” (priority 2001, published 2004)

Columns and labels:
[1] = tested on: (+)-MK801 binding site of the ionotropic NMDA receptor; assay: (3H)-(+)-MK801 receptor binding test on rat brain membrane homogenates; settings: 10 μmol/l compound; ligand (3H)-(+)-MK801; rat brain membrane homogenate; triplicate batches
Experimental: The investigations for determining the affinity of the octahydrophenanthrene compounds of the general formula I according to the invention with the (+)-MK801 binding site of the ionotropic NMDA receptor was performed on brain membrane homogenates (homogenate of rat brain without the cerebellum, pons and medulla oblongata of male rats, Wistar strain, Charles River, WIGA GmbH, Sulzbach, Germany) as described in B. M. Baron et al., Journal of Pharmacology and Experimental Therapeutics, vol. 279, pages 62-68, 1996. The corresponding literature description is hereby introduced as a reference and is deemed to be part of the disclosure.
To this end, after separation of the cerebellum, pons and medulla oblongata, freshly prepared rat brains were disrupted for 1 minute with a Polytron homogeniser at 6,000 rpm in 50 mmol/l of tris/HCl (pH 7.7) with ice cooling and were then centrifuged for 15 min at 4° C. and 60,000 g. After decanting off and discarding the supernatant, resuspending the membrane pellet in 50 mmol/l of tris/HCl (pH 7.7) and disrupting it with a homogeniser at 2,000 rpm for 1 minute, centrifuging was again performed for 15 min at 4° C. and 60,000 g. The supernatant was again discarded and the membrane pellet was homogenised in 50 mmol/l of tris/HCl (pH 7.7) (2,000 rpm for 1 minute) and frozen in aliquots at −70° C.
Aliquots were in each case thawed for the receptor binding test and then centrifuged for 15 min at 4° C. and 60,000 g. After decanting off and discarding the supernatant, the membrane pellet was suspended for the binding test with binding test buffer and homogenised (2,000 rpm for 1 minute).
The buffer used for the binding test was a buffer of 5 mmol/l of tris/HCl (pH 7.7), supplemented with 30 μmol/l of glycine and 100 μmol/l of glutamic acid.
The radioactively labelled ligand used was […] of (^3H)-(+)-MK801 ((5R,10S)-(+)-5-methyl-10,11-dihydro-5H-dibenzo(a,d)cyclohepten-5,10-imine). The level of non-specific binding was determined in the presence of 10 μmol/l of non-radioactively labelled (+)-MK801.
were added in concentration series and the displacement of the radioactive ligand from its specific binding on the NMDA receptor was determined. Each of the triplicate batches was incubated for 40 minutes at 25° C. and then harvested by filtration through glass fibre filters (GF/B) in order to determine the radioactive ligand bound to the brain membrane homogenate. The radioactivity retained on the glass fibre filter disk was measured, after addition of scintillating liquid, in the β-counter.
The percentage inhibition of the specific binding of the ligand (^3H)-(+)-MK801 obtained from triplicate batches in the presence of in each case 10 μmol/l of the substituted octahydrophenanthrene compounds of the general formula I is stated in Table 1 and serves as a measure of the affinity of the compounds of the general formula I according to the invention with the (+)-MK801 binding site of the ionotropic NMDA receptor.

[2] = tested on: phenylquinone-induced writhing in mice; assay: Writhing test in mice (phenylquinone-induced writhing); type: in vivo; settings: male mice, phenylquinone i.p., writhing counted 5-20 minutes after phenylquinone
Experimental: The analgesic efficacy of the compounds according to the invention was investigated by phenylquinone-induced writhing in mice, modified after I.C. Hendershot, J. Forsaith in J. Pharmacol. Exp. There. 125, 237-240 (1959). Male mice weighing 25-30 g were used for this purpose. Groups of 10 animals per substance dose received, 1.0 minute after intravenous administration of the substances tested, 0.3 ml/mouse of a 0.02% aqueous solution of phenylquinone (phenylbenzoquinone, Sigma, Deisenhofen; solution prepared with addition of 5% of ethanol and stored in a water bath at 45° C.) administered intraperitoneally. The animals were then placed individually in observation cages. A push button counter was used to record the number of pain-induced stretching movements (writhing reactions=straightening of the torso with stretching of the rear extremities) for 5-20 minutes after phenylquinone administration. The control was provided by animals who received only physiological common salt solution with phenylquinone.
All the substances were tested at the standard dosage of 10 mg/kg. The percentage inhibition (% inhibition) of the writhing reactions by a substance was calculated according to the following formula: [formula]

Structure (SMILES)	Percentage inhibition of (+)-MK801 binding at 10 μM [1] [%]	Percentage inhibition of writhing reaction at 10 mg/kg i.v. [2] [%]
CN(C)CC1CCCC2c3ccccc3CCC12.Cl (stereo not drawn) [Compound 1, 8-Dimethylaminomethyl-4b,5,6,7,8,8a,9,10-octahydrophenanthrene hydrochloride]	46	74
COc1ccc2c(c1)C1CCCC(CN(C)C)C1CC2.Cl (stereo not drawn) [Compound 2, 8-Dimethylaminomethyl-3-methoxy-4b,5,6,7,8,8a,9,10-octahydrophenanthrene hydrochloride]	56	75
CN(C)CC1CCCC2c3cc(O)ccc3CCC12.Cl (stereo not drawn) [Compound 3, 8-Dimethylaminomethyl-4b,5,6,7,8,8a,9,10-octahydrophenanthren-3-ol hydrochloride]	40	85
CN(C)CC1CCCC2c3ccc(F)cc3CCC12.Cl (stereo not drawn) [Compound 4, 8-Dimethylaminomethyl-2-fluoro-4b,5,6,7,8,8a,9,10-octahydrophenanthrene hydrochloride]	36	
CN(C)CC1CCCC2c3cc(Cl)ccc3CCC12.Cl (stereo not drawn) [Compound 5, 8-Dimethylaminomethyl-3-chloro-4b,5,6,7,8,8a,9,10-octahydrophenanthrene hydrochloride]	28	
CN(C)CC1CC(C(C)(C)C)CC2c3ccccc3CCC12.Cl (stereo not drawn) [Compound 6, 6-tert-Butyl-8-dimethylaminomethyl-4b,5,6,7,8,8a,9,10-octahydrophenanthrene hydrochloride]	31	
